Assay results from US7166642B1, “Use of cyclohexenone long-chain alcohol for treating neurodegenerative diseases” (Meiji Dairies Corporation, priority 1999, dated 2007).

Key:
[1] = tested on: Neurons originating from the cerebral hemisphere of rat fetus; test: Neurite-extension effect; assay type: cell-based; design: key to Neurite-extension effect: 0: No effect; +: Faintly effective; ++: Slightly effective; +++: Effective >160%; ++++: Remarkably effective >200%; conditions: for activity at 0.01 µM: Rattus norvegicus, Neuron, 72 h; for activity at 0.01 µM / Neurite-extension effect: 1×10^−8 M, cultured for three days, phase-contrast microscope; for neurite-extension effect as compared with bFGF (in words): summary of Table 1
Procedure: Neurons originating from the cerebral hemisphere of rat fetus (13–15 days) were used. The neurons were cultured according to a method described by Borg, J. et al. (Borg, J. et al.: Dev. Brain Res., 18: 37, 1985). Neurons in an amount of 1.5×10^5 were dispersed on a polylysine-coated dish (35 mm), and DMEM (supplemented with insulin, transferrin, progesterone, sodium selenate, and putrescine) was added thereto in an amount of 3 ml. Compound (1) of the present invention was dissolved in ethanol, and then the solution was added thereto such that the concentration became 1×10^−8 M. The neurons had been cultured for three days without the culture medium being changed. Thereafter, the neurons were fixed by use of PBS containing 2% glutaraldehyde and observed under a phase-contrast microscope.

[2] = tested on: transgenic mice expressing an SOD-1 mutant gene (G86R); test: Survival test for transgenic mice expressing an SOD-1 mutant gene; assay type: in vivo, mouse
Procedure: Ten transgenic mice were subjected to the survival test. The transgenic mice employed were those in which Gly-86 in the fourth exon of a mouse SOD-1 gene is mutated to Arg (G86R) (Ripps M. E., et al.: Proc. Natl. Acad. Sci. USA. 92: 689–693, 1995). The compound of Preparation Example 10 [3-(14-hydroxytetradecyl)-4-methyl-2-cyclohexen-1-one] was dissolved in ethanol/Tween 80/physiological saline (5/2.85/92.15). The solution was intraperitoneally (i.p.) administered to five specimens at an effective dose of 2 mg/kg for 40 continuous days, and physiological saline alone was similarly administered to the other five specimens. One mouse died due to injection complication before elapse of 90 days. The other four mice died at day 150. All control animals died at about day 90. The life was prolonged by 50% or more, which has high significance.
(1) Transgenic mice expressing an SOD-1 mutant gene were subjected to the survival test in the same manner as Test Example 1 except that 8 mg/kg of compound of Preparation Example 10 was intraperitoneally administered three times a week until the mice died. […] The life was prolonged by 30% or more.
(3) Moreover, in the survival test of transgenic mice (1), onset day (i.e., the day from which mouse becomes impossible to move) was compared between the mouse to which was administered compound of Preparation Example 10 and the control mouse. As a result, for the mouse to which was administered compound of Preparation Example 10, when compared to the control mouse, a prolonged time to the onset day by […] was observed, onset day being prolonged by 20%.

[3] = tested on: transgenic mice expressing an SOD-1 mutant gene; test: Bar test for confirming the motor function in transgenic mice expressing the mutant SOD-1 gene; assay type: in vivo, mouse; conditions: 8 mg/kg i.p. three times a week; measured from 80 to 91 days after birth; metallic bar 10 mm diameter, 45 cm length
Procedure: (2) Meanwhile, during the survival test (1) of the transgenic mice, bar test for confirming the motor function was conducted. In this test, the mouse to which was administered compound of Preparation 10 and control mouse were compared in the time (seconds) required for their passing over a metallic bar having the size of 10 mm in diameter and 45 cm in length. The measurement was carried out from 80 days to 91 days after birth. […] However, when compared the difference between the time at the initial date and the time at the final date, of the mouse to which was administered compound of Preparation Example 10 and of the control mouse, the ratio of the difference of the mouse to which was administered compound of Preparation Example 10 to the difference of the control mouse was about 40%.

Compound: CCCCCCCCCCCC(O)CC1=CC(=O)CCC1 (stereo not drawn) [Preparation Example 4, 3-(β-hydroxy-tridecyl)-2-cyclohexen-1-one]
- melting point: 42 to 43 °C

Compound: CC1(C)CCC(=O)C=C1CCCCCCCCCCCCO [Preparation Example 13, 3-(12-hydroxydodecyl)-4,4-dimethyl-2-cyclohexen-1-one]
- activity at 0.01 µM [1]: > 160%

Compound: CCCCCCCCCCCC(O)CC1=CC(=O)CCC1(C)C (stereo not drawn) [Preparation Example 14, 3-(β-hydroxytridecyl)-4,4-dimethyl-2-cyclohexen-1-one]
- activity at 0.01 µM [1]: > 160%

Compound: BFGF: bFGF, comparison substance in the neurite-extension test of Table 1 [reference compound]
- Neurite-extension effect [1]: ++

Compound: CCCCCCCCCCC(O)C1=CC(=O)CCC1 (stereo not drawn) [Preparation Example 2, 3-(1-hydroxy-undecyl)-2-cyclohexen-1-one]
- melting point: 34 to 35 °C

Compound: CC1=C(CCCCCCCCCCCCO)CCCC1=O [Preparation Example 18, 3-(12-hydroxydodecyl)-2-methyl-2-cyclohexen-1-one]
- Neurite-extension effect [1]: ++

Compound: O=C1C=C(CCCCCCCCCCCCCCO)CCC1 [Preparation Example 5, 3-(14-hydroxy-tetradecyl)-2-cyclohexen-1-one]
- melting point: 44 to 45 °C

Compound: CC1CCC(=O)C=C1CCCCCCCCCCCCO (stereo not drawn) [Preparation Example 8, 3-(12-hydroxydodecyl)-4-methyl-2-cyclohexen-1-one]
- activity at 0.01 µM [1]: > 160%

Compound: CC1(C)CCC(=O)C=C1CCCCCCCCCCCCCCO [Preparation Example 15, 3-(14-hydroxytetradecyl)-4,4-dimethyl-2-cyclohexen-1-one]
- activity at 0.01 µM [1]: > 160%

Compound: CCCCCCCCCCCC(O)CC1=CC(=O)CCC1C (stereo not drawn) [Preparation Example 9, 3-(β-hydroxytridecyl)-4-methyl-2-cyclohexen-1-one]
- activity at 0.01 µM [1]: > 200%
- neurite-extension effect as compared with bFGF (in words) [1]: remarkably excellent

Compound: O=C1C=C(CCCCCCCCCCCCO)CCC1 [Preparation Example 3, 3-(12-hydroxy-dodecyl)-2-cyclohexen-1-one]
- melting point: 35 to 36 °C

Compound: CC1=C(CCCCCCCCCCCCCCCO)C(C)(C)CCC1=O [Preparation Example 24, 3-(15-hydroxypentadecyl)-2,4,4-trimethyl-2-cyclohexen-1-one]
- activity at 0.01 µM [1]: > 200%
- neurite-extension effect as compared with bFGF (in words) [1]: remarkably excellent

Compound: CC1=C(CCCCCCCCCCCCCCO)C(C)(C)CCC1=O [Preparation Example 23, 3-(14-hydroxytetradecyl)-2,4,4-trimethyl-2-cyclohexen-1-one]
- activity at 0.01 µM [1]: > 160%
- neurite-extension effect as compared with bFGF (in words) [1]: remarkably excellent

Compound: CC1CCC(=O)C=C1CCCCCCCCCCCCCCO (stereo not drawn) [Preparation Example 10, 3-(14-hydroxytetradecyl)-4-methyl-2-cyclohexen-1-one]
- activity at 0.01 µM [1]: > 200%
- neurite-extension effect as compared with bFGF (in words) [1]: remarkably excellent
- prolongation of life ([2]; Test Example 1: 2 mg/kg i.p. for 40 continuous days, versus saline control): ≥ 50%
- day at which treated mice died ([2]; Test Example 1: 2 mg/kg i.p. for 40 continuous days, four of five mice (one died of injection complication before day 90), controls died at about day 90): 150 days
- activity of mice during the test ([2]; Test Example 1, control mice were morbid and could not act appropriately): very active
- survival of two of the treated mice ([2]; Test Example 2: 8 mg/kg i.p. three times a week until death): more than 200 days
- day at which treated mice died, on average ([2]; Test Example 2: 8 mg/kg i.p. three times a week until death, controls died at around day 110): ~150 days
- prolongation of onset day ([2]; Test Example 2: 8 mg/kg i.p. three times a week, compared to control): 20%
- prolongation of life ([2]; Test Example 2: 8 mg/kg i.p. three times a week, versus control): ≥ 30%
- ratio of the difference (time at initial date vs final date for passing the bar) of treated mouse to that of control mouse [3]: about 40%

Compound: CC1(C)CCC(=O)C=C1CCCCCCCCCCCO [Preparation Example 12, 3-(11-hydroxyundecyl)-4,4-dimethyl-2-cyclohexen-1-one]
- Neurite-extension effect [1]: ++

Compound: CC1=C(CCCCCCCCCCC(C)O)C(C)(C)CCC1=O (stereo not drawn) [Preparation Example 22, 3-(11-hydroxydodecyl)-2,4,4-trimethyl-2-cyclohexen-1-one]
- Neurite-extension effect [1]: ++

Compound: CC1=C(CCCCCCCCCCCCCCO)CCCC1=O [Preparation Example 20, 3-(14-hydroxytetradecyl)-2-methyl-2-cyclohexen-1-one]
- activity at 0.01 µM [1]: > 200%
- neurite-extension effect as compared with bFGF (in words) [1]: remarkably excellent
